Data reported in patent US11566007B2, “Ras inhibitors” (Revolution Medicines, Inc., priority 2019, dated 2023).
Several values for one entry are separate records, joined by “and”; a condition that tells them apart may be missing. Identical values can stand only once. Like-named read-outs stand apart in the source and are kept apart here.

Legend:
K-Ras G12C = K-Ras G12C (Homo sapiens (Human), UniProt P01116+P62937, G12C); test: Ras-Raf (BRAF RBD) disruption / FRET / MOA assay, KRAS G12C; type: biochemical; conditions: KRAS G12C; Ras-Raf disruption/FRET/MOA assay; read-out: IC50* KRAS G12C FRET data
In short: (§1)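 Compound-driven ternary complex of nucleotide-loaded Ras with cyclophilin A, disrupting BRAF RBD binding. 10-point 3-fold dilution from 30 μM final, 3 h at 25° C, then anti-His Eu-W1024 (10 nM) and anti-GST allophycocyanin (50 nM) for 1.5 h. IC50 from TR-FRET ratio decrease versus DMSO.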

K-Ras G13C = K-Ras G13C (Homo sapiens (Human), UniProt P01116+P62937, G13C); test: Ras-Raf (BRAF RBD) disruption / FRET / MOA assay, KRAS G13C; type: biochemical; conditions: KRAS G13C; Ras-Raf disruption/FRET/MOA assay; read-out: IC50* KRAS G13C FRET data
In short: as §1

KRAS G12S = KRAS G12S (Homo sapiens (Human), UniProt P01116+P62937, G12S); test: Ras-Raf (BRAF RBD) disruption / FRET / MOA assay, KRAS G12S; type: biochemical; conditions: Ras-Raf disruption/FRET/MOA assay; class symbols; read-out: KRAS G12S FRET data IC50
In short: as §1

KRAS G12D = KRAS G12D (Homo sapiens (Human), UniProt P01116+P62937, G12D); test: Ras-Raf (BRAF RBD) disruption / FRET / MOA assay, KRAS G12D; type: biochemical; conditions: Ras-Raf disruption/FRET/MOA assay; class symbols; read-out: KRAS G12D FRET data IC50
In short: as §1

KRAS G12V = KRAS G12V (Homo sapiens (Human), UniProt P01116+P62937, G12V); test: Ras-Raf (BRAF RBD) disruption / FRET / MOA assay, KRAS G12V; type: biochemical; conditions: read-out: IC50* KRAS G12V FRET data
In short: as §1

KRAS WT = KRAS WT (Homo sapiens (Human), UniProt P01116+P62937); test: Ras-Raf (BRAF RBD) disruption / FRET / MOA assay, KRAS WT; type: biochemical; conditions: read-out: IC50* KRAS WT FRET data
In short: as §1

KRAS Q61H = KRAS Q61H (Homo sapiens (Human), UniProt P01116+P62937, Q61H); test: Ras-Raf (BRAF RBD) disruption / FRET / MOA assay, KRAS Q61H; type: biochemical; conditions: Ras-Raf disruption/FRET/MOA assay; class symbols; read-out: KRAS Q61H FRET data IC50
Protocol: (§2) The purpose of this biochemical assay is to measure the ability of test compounds to facilitate ternary complex formation between a nucleotide-loaded Ras isoform and cyclophilin A; the resulting ternary complex disrupts binding to a BRAF^RBD construct, inhibiting Ras signaling through a RAF effector.
(§3) […]. Compound is present in plate wells as a 10-point 3-fold dilution series starting at a final concentration of 30 μM. After incubation at 25° C. for 3 hours, a mixture of Anti-His Eu-W1024 and anti-GST allophycocyanin is then added to assay sample wells at final concentrations of 10 nM and 50 nM, respectively, and the reaction incubated for an additional 1.5 hours. […] Compounds that facilitate disruption of a Ras:RAF complex are identified as those eliciting a decrease in the TR-FRET ratio relative to DMSO control wells.
(§4) Note—The following protocol describes a procedure for monitoring disruption of K-Ras G12C (GMP-PNP) binding to BRAF^RBD by a compound of the invention. This protocol may also be executed substituting other Ras proteins or nucleotides.
(§5) The purpose of this biochemical assay was to measure the ability of test compounds to facilitate ternary complex formation between a nucleotide-loaded K-Ras isoform and Cyclophilin A; the resulting ternary complex disrupts binding to a BRAF^RBD construct, inhibiting K-Ras signaling through a RAF effector. Data is reported as IC50 values.
as §3, with “Compound was” for “Compound is”, “allophycocyanin was” for “allophycocyanin is”, “a K-Ras:RAF” for “a Ras:RAF”, “complex were” for “complex are”

NRAS Q61R = NRAS Q61R (Homo sapiens (Human), UniProt P01111+P62937, Q61R); test: Ras-Raf (BRAF RBD) disruption / FRET / MOA assay, NRAS Q61R; type: biochemical; conditions: NRAS Q61R; Ras-Raf disruption/FRET/MOA assay; read-out: IC50* NRAS Q61R FRET data
Protocol: as §2, §3, §4, §5
as §3, with “Compound was” for “Compound is”, “allophycocyanin was” for “allophycocyanin is”, “a K-Ras:RAF” for “a Ras:RAF”, “complex were” for “complex are”

NRAS Q61K = NRAS Q61K (Homo sapiens (Human), UniProt P01111+P62937, Q61K); test: Ras-Raf (BRAF RBD) disruption / FRET / MOA assay, NRAS Q61K; type: biochemical; conditions: NRAS Q61K; Ras-Raf disruption/FRET/MOA assay; read-out: IC50* NRAS Q61K FRET data
Protocol: as §2, §3, §4, §5
as §3, with “Compound was” for “Compound is”, “allophycocyanin was” for “allophycocyanin is”, “a K-Ras:RAF” for “a Ras:RAF”, “complex were” for “complex are”

NRAS WT = NRAS WT (Homo sapiens (Human), UniProt P01111+P62937); test: Ras-Raf (BRAF RBD) disruption / FRET / MOA assay, NRAS WT; type: biochemical; conditions: read-out: IC50* NRAS WT FRET data
Protocol: as §2, §3, §4, §5
as §3, with “Compound was” for “Compound is”, “allophycocyanin was” for “allophycocyanin is”, “a K-Ras:RAF” for “a Ras:RAF”, “complex were” for “complex are”

[1] = test system: NCI-H358 cells (K-Ras G12C); test: Potency assay: pERK in NCI-H358 cells; type: cell-based, human; conditions: H358 KRAS G12C, read-out: pERK EC50
In short: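 4 h cpd, 37 °C; 10-pt 3-fold series, 10 mM DMSO top stock, duplicates. Readout pERK: AlphaLISA SureFire Ultra or In-Cell Western (IR-800CW secondary, DRAQ5 DNA stain). IC50, 4-PL fit vs log conc.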

NCI-H358 (K-Ras G12C) = test: CellTiter-Glo cell viability assay, NCI-H358; type: cell-based, human; conditions: NCI-H358, 5-day treatment; class symbols; read-out: Additional H358 Cell Viability assay data (K-Ras G12C, IC50)
In short: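 Viability measured by CellTiter-Glo luminescence on day 5 following direct addition of compound to plated cells. Values expressed as percent of mean DMSO signal; curves fitted with a four-parameter logistic model.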

KRAS G13D = KRAS G13D (Homo sapiens (Human), UniProt P01116+P62937, G13D); test: Ras-Raf (BRAF RBD) disruption / FRET / MOA assay, KRAS G13D; type: biochemical; conditions: read-out: IC50* KRAS G13D FRET data
In short: as §1

Chain of KRAS G12D (P01116-2 other isoform, or with tags, fused parts or gaps G12D): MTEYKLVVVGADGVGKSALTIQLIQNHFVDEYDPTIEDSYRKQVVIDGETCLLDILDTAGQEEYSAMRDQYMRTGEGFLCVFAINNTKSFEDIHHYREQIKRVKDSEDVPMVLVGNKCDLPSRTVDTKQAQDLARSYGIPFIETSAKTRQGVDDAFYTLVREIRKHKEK
Chain of KRAS G12D (P62937 whole entry): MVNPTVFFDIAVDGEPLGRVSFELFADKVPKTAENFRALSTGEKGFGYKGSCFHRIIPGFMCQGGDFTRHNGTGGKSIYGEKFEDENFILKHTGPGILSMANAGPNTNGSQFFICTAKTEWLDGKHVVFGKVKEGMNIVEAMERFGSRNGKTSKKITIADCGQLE
Chain of KRAS G12S (P01116-2 other isoform, or with tags, fused parts or gaps G12S): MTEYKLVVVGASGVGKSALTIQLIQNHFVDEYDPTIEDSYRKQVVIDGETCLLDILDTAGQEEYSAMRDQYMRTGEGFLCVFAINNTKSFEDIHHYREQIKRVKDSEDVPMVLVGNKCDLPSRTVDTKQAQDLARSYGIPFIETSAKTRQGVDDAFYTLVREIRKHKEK
Chain of KRAS G12S (P62937 whole entry): as the sequence (P62937 whole entry) above
Chain of KRAS G12V (P01116-2 other isoform, or with tags, fused parts or gaps G12V): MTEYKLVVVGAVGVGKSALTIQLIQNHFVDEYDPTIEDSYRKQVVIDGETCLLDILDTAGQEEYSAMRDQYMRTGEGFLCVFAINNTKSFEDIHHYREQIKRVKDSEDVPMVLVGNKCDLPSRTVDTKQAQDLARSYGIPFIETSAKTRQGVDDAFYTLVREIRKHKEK
Chain of KRAS G12V (P62937 whole entry): as the sequence (P62937 whole entry) above
Chain of KRAS Q61H (P01116-2 other isoform, or with tags, fused parts or gaps Q61H): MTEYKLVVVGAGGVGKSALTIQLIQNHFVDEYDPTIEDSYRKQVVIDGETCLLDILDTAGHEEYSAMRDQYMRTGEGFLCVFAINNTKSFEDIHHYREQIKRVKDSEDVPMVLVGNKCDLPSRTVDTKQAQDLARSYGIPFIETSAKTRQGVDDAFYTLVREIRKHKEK
Chain of KRAS Q61H (P62937 whole entry, canonical isoform): as the sequence (P62937 whole entry) above
Chain of K-Ras G12C (P01116-2 other isoform, or with tags, fused parts or gaps G12C): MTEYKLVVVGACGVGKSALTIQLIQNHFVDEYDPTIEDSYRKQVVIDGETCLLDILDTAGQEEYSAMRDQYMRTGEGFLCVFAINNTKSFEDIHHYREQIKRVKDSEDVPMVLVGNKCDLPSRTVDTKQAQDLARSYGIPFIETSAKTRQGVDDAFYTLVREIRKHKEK
Chain of K-Ras G12C (P62937 whole entry): as the sequence (P62937 whole entry) above
Chain of KRAS WT (P01116-2 other isoform, or with tags, fused parts or gaps): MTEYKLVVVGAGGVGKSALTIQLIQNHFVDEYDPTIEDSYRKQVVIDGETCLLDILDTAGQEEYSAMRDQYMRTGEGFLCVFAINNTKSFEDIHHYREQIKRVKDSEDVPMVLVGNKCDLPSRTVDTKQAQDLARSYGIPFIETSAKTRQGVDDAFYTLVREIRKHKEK
Chain of KRAS WT (P62937 whole entry): as the sequence (P62937 whole entry) above
Chain of K-Ras G13C (P01116-2 other isoform, or with tags, fused parts or gaps G13C): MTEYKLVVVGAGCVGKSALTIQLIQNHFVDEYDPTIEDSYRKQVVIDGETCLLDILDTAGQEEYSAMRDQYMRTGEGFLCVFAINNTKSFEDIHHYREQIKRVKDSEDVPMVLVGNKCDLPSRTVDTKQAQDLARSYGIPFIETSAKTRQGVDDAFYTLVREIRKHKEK
Chain of K-Ras G13C (P62937 whole entry): as the sequence (P62937 whole entry) above
Chain of NRAS WT (P01111 whole entry): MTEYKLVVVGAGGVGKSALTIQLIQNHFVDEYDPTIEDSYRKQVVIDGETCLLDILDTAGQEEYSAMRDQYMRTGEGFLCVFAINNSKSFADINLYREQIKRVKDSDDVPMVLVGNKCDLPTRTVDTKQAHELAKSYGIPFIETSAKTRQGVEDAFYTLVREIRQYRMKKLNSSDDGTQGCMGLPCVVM
Chain of NRAS WT (P62937 whole entry): as the sequence (P62937 whole entry) above
Chain of KRAS G13D (P01116-2 other isoform, or with tags, fused parts or gaps G13D): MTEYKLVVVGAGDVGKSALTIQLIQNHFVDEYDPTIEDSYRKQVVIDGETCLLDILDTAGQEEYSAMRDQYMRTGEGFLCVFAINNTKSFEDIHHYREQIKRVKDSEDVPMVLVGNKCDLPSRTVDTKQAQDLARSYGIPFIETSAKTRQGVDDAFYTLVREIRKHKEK
Chain of KRAS G13D (P62937 whole entry): as the sequence (P62937 whole entry) above
Chain of NRAS Q61K (P01111 whole entry Q61K): as the sequence (P01111 whole entry) above, with Q61K counted along it
Chain of NRAS Q61K (P62937 whole entry): as the sequence (P62937 whole entry) above
Chain of NRAS Q61R (P01111 whole entry Q61R): as the sequence (P01111 whole entry) above, with Q61R counted along it
Chain of NRAS Q61R (P62937 whole entry): as the sequence (P62937 whole entry) above

IC50 (K-Ras G12C)	IC50 (K-Ras G13C)	IC50 (KRAS G12V)	IC50 (KRAS WT)	IC50 (NRAS Q61R)	IC50 (NRAS Q61K)	IC50 (NRAS WT)	EC50 ([1]; Homo sapiens, NCI-H358)	IC50 (KRAS G13D)	SMILES	IC50 (KRAS G12S)	IC50 (KRAS G12D)	IC50 (KRAS Q61H)	EC50 [1]	IC50 (NCI-H358 (K-Ras G12C))
100 to 1000 nM	1000 to 10000 nM	1000 to 10000 nM	1000 to 10000 nM	1000 to 10000 nM	1000 to 10000 nM	1000 to 10000 nM			C=CC(=O)N1CC[C@H](C(=O)N(C)[C@H](C(=O)N[C@H]2Cc3cc(O)cc(c3)-c3ccc4c(c3)c(c(-c3ccc(N5CCN(C)CC5)nc3)n4CC)CC(C)(C)COC(=O)[C@@H]3CCCN(N3)C2=O)C(C)C)C1 [Example A089]	1000 to 10000 nM	> 10000 nM	100 to 1000 nM		
									C=CC(=O)N1CC[C@H](C(=O)N(C)[C@H](C(=O)N[C@H]2Cc3cc(CF)cc(c3)-c3ccc4c(c3)c(c(-c3cccnc3[C@H](C)OC)n4CC)CC(C)(C)COC(=O)[C@@H]3CCCN(N3)C2=O)C(C)C)C1 (atropisomer, axis not shown) [Example A505]	1000 to 10000 nM	1000 to 10000 nM	100 to 1000 nM	< 5000 nM	< 10 nM
									CCn1c(-c2cccnc2[C@H](C)OC)c2c3cc(ccc31)-c1cccc(c1)C[C@H](NC(=O)[C@H](C(C)C)N(C)C(=O)[C@H]1CCN(C(=O)C#CC(C)(C)N(C)C)C1)C(=O)N1CCC[C@H](N1)C(=O)OCC(C)(C)C2 (atropisomer, axis not shown) [Example A339]	1000 to 10000 nM	> 10000 nM	1000 to 10000 nM	< 5000 nM	< 10 nM
10 to 100 nM and 1000 to 10000 nM	> 10000 nM and 1000 to 10000 nM	100 to 1000 nM and > 10000 nM	100 to 1000 nM and > 10000 nM	100 to 1000 nM	100 to 1000 nM	100 to 1000 nM	< 5000 nM	1000 to 10000 nM and > 10000 nM	C=CC(=O)N1CC[C@H](C(=O)N(C)[C@H](C(=O)N[C@H]2Cc3cc(O)cc(c3)-c3ccc4c(c3)c(c(-c3cccnc3)n4C(C)(C)C#N)CC(C)(C)COC(=O)[C@@H]3CCCN(N3)C2=O)C(C)C)C1 [Example A148]	100 to 1000 nM and > 10000 nM	1000 to 10000 nM and > 10000 nM	10 to 100 nM		
									C=CC(=O)N1CC[C@H](C(=O)N(C)[C@H](C(=O)N[C@H]2Cc3cc(CF)cc(c3)-c3ccc4c(c3)c(c(-c3cccnc3[C@H](C)OC)n4CC)CC(C)(C)COC(=O)[C@@H]3CCCN(N3)C2=O)C(C)C)C1 (atropisomer, axis not shown) [Example A504]	1000 to 10000 nM	1000 to 10000 nM	100 to 1000 nM	< 5000 nM	< 10 nM
									C=CC(=O)N1CCOC2(CCN(C(=O)N(C)[C@H](C(=O)N[C@H]3CN4CCC=C(C4)c4ccc5c(c4)c(c(-c4cccnc4[C@H](C)OC)n5CC)CC(C)(C)COC(=O)[C@@H]4CCCN(N4)C3=O)C(C)C)CC2)C1 [Example A563]	1000 to 10000 nM	> 10000 nM	1000 to 10000 nM	< 5000 nM	100 to 1000 nM
